The test addresses T1, MAPK14 (p38 alpha) (Homo sapiens, UniProt Q16539).
T1 construct: purchased Thermo Fisher Scientific (Life Technologies) SelectScreen
Put plainly: SelectScreen Z'LYTE. Type of test: biochemical. In a few lines: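 SelectScreen broad panel; activity (Z'LYTE, Adapta) plus binding formats. ATP: Km app for CSF1R Z'LYTE; 10 for CAMK1 Adapta. Readout = % per kinase.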

T1 sequence (Q16539 whole entry): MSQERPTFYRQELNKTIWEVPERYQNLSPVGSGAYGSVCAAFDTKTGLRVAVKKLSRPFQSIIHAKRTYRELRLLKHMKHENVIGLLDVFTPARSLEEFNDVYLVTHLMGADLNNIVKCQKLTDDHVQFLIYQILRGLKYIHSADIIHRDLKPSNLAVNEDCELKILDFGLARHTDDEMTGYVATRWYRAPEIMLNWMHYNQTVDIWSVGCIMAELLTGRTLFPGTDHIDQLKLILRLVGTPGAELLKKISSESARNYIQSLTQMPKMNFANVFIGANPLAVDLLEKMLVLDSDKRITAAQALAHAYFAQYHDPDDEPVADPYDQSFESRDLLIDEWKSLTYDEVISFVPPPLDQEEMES

By inhibition is commonly meant the change of the read-out against control, counted positive when it falls. High values mean a strong effect, low ones a weak effect. For the compound `CN(C(=O)CN1CCOCC1)c1ccc2sc3c(-c4cccc5c(=O)cc(N6CC7CCC(C6)O7)oc45)cccc3c2c1` [NU5455], the inhibition at 1 µM is 9.7%.

Source of the values: article PMC6934184, “Selective DNA-PKcs inhibition extends the therapeutic index of localized radiotherapy and chemotherapy” (The Journal of Clinical Investigation, 2019).
